In EP2401611B1, “IMPROVED METHODS FOR IDENTIFICATION” (Cambridge Enterprise Limited, priority 2009, dated 2010):
Like-named read-outs stand apart in the source and are kept apart here.

Experiments:
[1] = biological target: type 2 somatostatin receptor (sstr2), human (human) (UniProt P30874); assay: cell-based or functional assay
[2] = test system: THP-1 cells; assay: MCP-1 induced THP-1 cell migration (Transwell) assay; format: cell-based, human; details: for Chemokine-induced THP-1 cell migration assay ("BSCI" target) Max Effect (%): Table 4
Protocol: Leukocyte migration was measured using the 96-well format micro Transwell^RTM assay system from Neuroprobe (Gaithersburg, MD, USA). In principle, this assay consists of two chambers separated by a porous membrane. The chemoattractant is placed in the lower compartment and the cells are placed in the upper compartment. After incubation for a period at 37°C the cells move towards the chemoattractant, and the number of cells in the lower compartment is proportional to the chemoattractant activity (relative to a series of controls).
(§1) The method was performed essentially as previously described (Reckless & Grainger (1999) Biochem. J. 340:803-11).
First, the cell suspension to be placed in the upper compartment was prepared. The THP-1 cells were pelleted by centrifugation (770 x g; 4 mins) and washed with Geys Balanced Salt Solution with 1mg/ml BSA (GBSS + BSA). This wash was then repeated, and the cells re-pelleted before being resuspended in a small volume of GBSS + BSA for counting, for example using a standard haemocytometer.
The volume of GBSS + BSA was then adjusted depending on the number of cells present so that the cells were at final density of 4.45 x 10^6 cells per ml of GBSS + BSA. This ensured that there were 100,000 THP-1 cells in each 25µl of the solution to be placed in the upper chamber of the plate.
The suspension of THP-1 cells at 4.45 x 10^6 cells/ml was divided into three pots. To one pot the BSCI was added at an appropriate final concentration, in an appropriate vehicle (for example (S)- 3-(2',2'-dimethylpropanoylamino)-tetrahydropyridin-2-one was added at 1nM from a stock solution in GBSS). To the second pot, the BSCI was added at the same concentration as in the first pot, but additionally the sstr2 antagonist was also added (for example BIM 23454 [Tulipano et al. (2002) 143:1218-24] or BIM 23627 were added at 66nM final concentration from a stock solution in GBSS). To the third pot, GBSS + BSA plus vehicle as appropriate was added so that the volumes in three pots are equal, acting as a control.
Next, the chemoattractant solution to be placed in the lower compartment was prepared. […]. Note that, as recommended by Frow et al (Med. Res. Rev. 24:276-98) this is the concentration of MCP-1 which induces maximal migration in this system. This solution was divided into three pots, as for the cell suspension. To one pot, the BSCI was added to the same final concentration as was added to the cell suspension, in the second pot the BSCI and the sstr2 antagonist were both added at the same concentration as previously added to the cell suspension, while to the remaining pot GBSS + BSA plus vehicle as appropriate was added so that the volumes in the three pots were equal. Note that the volume of liquid that needs to be added to make the addition of the BSCI and the sstr2 antagonist compounds needs to be taken into account, when establishing the final concentration of MCP-1 in the solution for the lower compartment and the final concentration of cells in the upper compartment.
(§2) Once the chemoattractant solutions for the lower wells and cell solutions for the upper chambers were prepared, the migration chamber was assembled. 29 µl of the appropriate chemoattractant solution was placed into the lower well of the chamber. Assays were performed with at least triplicate determinations of each condition. Once all the lower chambers were filled, the porous membrane was applied to the chamber in accordance with the manufacturer's instructions. Finally, 25 µl of the appropriate cell solution was applied to each upper chamber. A plastic lid was placed over the entire apparatus to prevent evaporation.
The assembled chamber was incubated at 37 °C, 5% CO2, for 2 hours. A suspension of cells in GBSS + BSA was also incubated under identical conditions in a tube: these cells were used to construct a standard curve for determining the number of cells that migrated to the lower chamber under each condition. […]

[3] = test system: Panc-2H4; assay: Human Panc-2H4 insulin suppression assay; format: cell-based; details: for Panc-2H4 insulin suppression assay ("classical" target) Max Effect (%): Table 4; for EC50: Table 4, 0.01nM to 1,000nM in DMSO vehicle, read-out: Panc-2H4 insulin suppression assay ("classical" target) ED50
Excerpt: (§3) Two different assays for "classical" sstr2 functions were adopted: (1) cultured foetal rat pituitary cells secreted growth hormone which is inhibited by sstr2 agonists in a dose-dependent fashion and (2) selected glucose-sensitive sub-clones of the human Panc-1 cell line secrete insulin which is inhibited by sstr2 agonists in a dose-dependent fashion.
Glucose-sensitive sub-clones of the human Panc-1, a cell line derived from a pleiomorphic epithelioid carcinoma of the exocrine pancreas, were obtained essentially as described by Hamil et al. (2008) Biomed. Sci. Instrum. 44:441-6. Briefly, Panc-1 cells were subcultured in 24 well plates, and the medium was supplemented with an additional 5% glucose. […] The resulting sub-lines were then tested for glucose sensitivity by preparing wells of a 96-well plate (5 x 10^4 cells per well) which were then exposed to cultured medium containing a range of glucose concentrations (low glucose DMEM, DMEM, DMEM + 1% glucose, DMEM ± 2.5% glucose and DMEM + 5% glucose). After 24hrs incubation, the conditioned medium was collected and assayed for insulin secretion by ELISA (Linco; cat# EZHI-14K) in accordance with the manufacturer's instructions. […] Further 96 well plates were prepared using Panc-2H4 (5 x 10^4 cells per well) in DMEM. After 24hrs, the medium was switched to DMEM + 5% glucose containing various test agents at various concentrations (triplicate wells per condition). After a further 24hrs, the conditioned medium was harvested and the concentration of insulin was determined by ELISA as described above.
(§4) Results were reported as the mean ± SD, expressed as the fold change from cells in the presence of vehicle only.

[4] = biological target: sstr2 (Homo sapiens, UniProt P30874); assay: [3H]-BN83250 equilibrium binding to THP-1 cells
Sequence of sstr2 (P30874 whole entry): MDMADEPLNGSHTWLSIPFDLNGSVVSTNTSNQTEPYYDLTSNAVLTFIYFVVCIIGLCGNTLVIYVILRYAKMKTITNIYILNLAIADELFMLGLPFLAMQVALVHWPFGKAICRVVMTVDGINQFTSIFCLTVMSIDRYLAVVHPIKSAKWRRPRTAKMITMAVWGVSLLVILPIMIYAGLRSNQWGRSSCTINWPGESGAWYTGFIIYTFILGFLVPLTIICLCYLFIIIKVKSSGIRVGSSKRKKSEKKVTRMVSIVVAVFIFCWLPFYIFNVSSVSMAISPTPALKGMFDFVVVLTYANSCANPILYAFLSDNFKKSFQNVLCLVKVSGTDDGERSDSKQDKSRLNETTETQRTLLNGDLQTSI
Protocol: We have investigated the molecular interaction between BSCIs and the sstr2 receptor using conventional equilibrium binding studies employing labelled BSCI ligands.
For the analysis of binding, individual reactions were set up (in triplicate for each condition), with 1x10^6 THP-1 cells in Gey's Balanced Salt Solution, 10nM [^3H]-BN83250 (at 50 Ci/mmol) and various concentrations of (S)-3(2'2'-dimethylpropionoylamino)-tetrahydropyridin-2-one (10pM to 10µM). Excess (100µM) unlabelled BN83250 was used to determine the level of non-specific binding. After 2 hours at 4°C (conditions previously shown to achieve equilibrium binding, and which prevent uptake of the radioligand that would result in an over-estimate of binding) excess label was washed away by centrifugation (3 washes with 5ml of Gey's Balanced Salt Solution) and the bound radioactivity was determined by scintillation counting of the solubilised cell pellet.

[5] = test system: THP-1 cells; assay: MCP-1 induced THP-1 cell migration (Transwell) assay; format: cell-based, human
Protocol: In principle, this assay consists of two chambers separated by a porous membrane. The chemoattractant is placed in the lower compartment and the cells are placed in the upper compartment.
as §1
First, the cell suspension to be placed in the upper compartment was prepared.
Next, the chemoattractant solution to be placed in the lower compartment was prepared. […] Note that, as recommended by Frow et al (Med. Res. Rev. 24:276-98) this is the concentration of MCP-1 which induces maximal migration in this system. This solution was divided into three pots, as for the cell suspension.
as §2, with “29 µl of the appropriate chemoattractant solution was placed into the lower well of the chamber.” left out, “Finally, 25 µl of the appropriate cell solution was applied to each upper chamber.” left out
This procedure caused any cells adhering to the underside of the membrane to fall into the lower chamber.
The number of cells migrated into the lower chamber under each condition can then be determined by a number of methods, including direct counting, labelling with fluorescent or radioactive markers or through the use of a vital dye. Typically, we utilised the vital dye MTT.

[6] = test system: rat peripheral blood leukocytes; assay: Rat chemokine-induced PBMC migration assay; format: cell-based
[7] = test system: fetal rat pituicytes; assay: Rat pituicyte GH suppression assay; format: cell-based; details: Rattus norvegicus
Excerpt: as §3
Methods: Cultures of fetal rat pituicytes were established exactly as previously described (Murray et al. (2004) J. Clin. Endocrinol. Metab. 89:3027-32) by enzymatic dispersion. After 48hrs in low glucose DMEM plus 10% FCS, cells in 48 well plates (5 x 10^4 cells per well) were washed for 4hrs in serum-free DMEM and then incubated with test agents at various concentrations for a further 24hrs in serum-free DMEM. At the end of this period, the conditioned medium was harvested, any cell debris removed by centrifugation and assayed for GH using a commercially available ELISA (Linco; cat# EZRMGH-45K) in accordance with the manufacturer's instructions.
as §4

[8] = Table 4, 0.01nM to 1,000nM in DMSO vehicle, read-out: Chemokine-induced THP-1 cell migration assay ("BSCI" target) ED50

Sequence of type 2 somatostatin receptor (sstr2), human (human) (P30874 whole entry): as above

somatostatin-28 (from UniProt P61278 89-116) (peptide)
"Classical" : "BSCI" potency ratio, Human [1]: 6
ED50 for inhibition of MCP-1 induced THP-1 cell migration [1]: 0.9 nM
Human Panc-2H4 insulin suppression assay, ED50 [1]: 0.14 nM
Human chemokine-induced THP-1 migration assay, ED50 [1]: 0.9 nM

NCC1CCCC(CNC(=O)C(Cc2ccccc2)NC(=O)N2CCC(n3c(=O)[nH]c4ccccc43)CC2)C1 (stereo not drawn) [F]
Chemokine-induced THP-1 cell migration assay ("BSCI" target) Max Effect (%) [2]: <10%
EC50 [2, 8]: > 1000 nM
Panc-2H4 insulin suppression assay ("classical" target) Max Effect (%) [3]: <10%
EC50 [3]: > 1000 nM

CC1(C(=O)N[C@H]2CCCCNC2=O)CCCCC1 [(S)-3-(1'-methylcyclohexyl-1'-carbonylamino)-caprolactam]
competition with BN83250 binding to sstr2 (in words) [4]: also compete with BN83250 binding to sstr2 to a similar extent

Cortistatin
ED50 for inhibition of chemokine-induced THP-1 cell migration [5]: ~75 nM
ED50 ([5]; Table 2, inhibition of MCP-1 induced THP-1 cell migration): 75 nM
Max effect ([5]; Table 2, maximum inhibition at the highest dose tested (1-10µM)): 40-60%
maximal inhibition of leukocyte migration ([5]; even at maximal / very high doses): ~50%

O=C1NCCCC[C@@H]1NC(=O)C12CC3CC(CC(C3)C1)C2 [BN83470, (S)-3-(admantane-1'-carbonylamino)-caprolactam]
EC50 ([2]; Homo sapiens, THP-1, Table 3, read-out: Human chemokine-induced THP-1 migration assay ED50): 0.08 nM
Emax ([2]; Homo sapiens, THP-1, Table 3, read-out: Human chemokine-induced THP-1 migration assay Max effect (%)): 100%
"Classical" : "BSCI" potency ratio Human ([2]; Table 3, THP-1 migration ED50 versus Panc-2H4 insulin suppression ED50): <0.00008
Emax ([3]; Homo sapiens, Table 3, percentage suppression compared to vehicle, read-out: Human Panc-2H4 insulin suppression assay Max effect (%)): < 10%
EC50 ([6]; Rattus norvegicus, Leukocyte, Table 3, read-out: Rat chemokine-induced PBMC migration assay ED50): 0.22 nM
Emax ([6]; Rattus norvegicus, Leukocyte, Table 3, read-out: Rat chemokine-induced PBMC migration assay Max effect (%)): 100%
"Classical" : "BSCI" potency ratio Rat ([6]; Table 3, rat PBMC migration ED50 versus rat pituicyte GH suppression ED50): 0.0008
Emax ([7]; Table 3, percentage suppression compared to vehicle, read-out: Rat pituicyte GH suppression assay Max effect (%)): 56%
EC50 ([7]; Table 3, read-out: Rat pituicyte GH suppression assay ED50): 270 nM
competition with BN83250 binding to sstr2 (in words) [4]: also compete with BN83250 binding to sstr2 to a similar extent

CC(=O)NC(CC(N)=O)C(=O)NC(C(=O)NCC1CCCC(CN)C1)C(C)c1c[nH]c2ccccc12 (mixture of isomers) [D]
Chemokine-induced THP-1 cell migration assay ("BSCI" target) Max Effect (%) [2]: <10%
EC50 [2, 8]: > 1000 nM
Panc-2H4 insulin suppression assay ("classical" target) Max Effect (%) [3]: 37%
EC50 [3]: 650 nM
